Laboratory results published in patent US20040133938A1, “Use of lipoic acid in plant culture media” (priority 2002, published 2004).

Test system: immature embryos of wheat cv Bobwhite
Test: Wheat Agrobacterium transformation
Assay type: cell-based, Triticum aestivum L
Conditions: for Efficiency (%) / Responding calli (%): selection and first regeneration media
Protocol: This example describes the use of lipoic acid in an Agrobacterium-based wheat transformation process. Immature embryos of wheat (Triticum aestivum L) cv Bobwhite were isolated from the immature caryopsis (wheat spikelets) 13-15 days after pollination, and cultured on M7 media (M7 medium is based on CM4C medium [Table 8], but the amount of MS salts was doubled and the picloram concentration was increased from 2.4 mg/L to 4 mg/L) containing 0.02 mM glyphosate for 3-4 days in the dark at 25° C. The embryos without embryogenic callus were selected for Agrobacterium inoculation. After preculture, 100 embryos were inoculated in 5 mL 1/10 CM4C medium with 5 mL Agrobacterium (OD660=1), 10 μL Pluronic F68 was added, and the mixture was incubated for 15 minutes in the dark at room temperature. Embryos were placed on sterilized filter paper with 200 μL deionized water and cocultured in the dark for 3 days at 23° C. Embryos were then transferred to delay media for 7 days in the dark at 25° C. Delay medium consists of CM4C, 500 mg/L carbenicillin, and 0.02 mM glyphosate. Selection was then performed on CM4C with 2 mM glyphosate, 500 mg/L carbenicillin and aromatic amino acids (10^−7/amino acid) for 7 days. Regeneration was started on MMSO.2C with 0.1 mM glyphosate, 250 mg/L carbenicillin, and aromatic amino acids ([…]) for 2 weeks in the light at 25° C. Regeneration was continued in MMSO.2C with 0.02 mM glyphosate, 500 mg/L carbenicillin, aromatic amino acids (10^−7/amino acid), and 2 μM copper sulfate for 2-8 weeks (with a transfer every 2 weeks) in the light at 25° C. Finally, plantlets were transferred to sundae cups with MMSO media with 0.02 mM glyphosate, and 500 mg/L carbenicillin.

[1] = Delay-selection-first regeneration 25-25-50 (μM), 599 explants
[2] = Delay-selection-first regeneration 25-50-50 (μM), 560 explants
[3] = Delay-selection-first regeneration 50-50-50 (μM), 570 explants

O=C(O)CCCCC1CCSS1 (stereo not shown) [lipoic acid, 1,2-dithiolane-3-pentanoic acid]
Efficiency (%) (5 μM in delay, 472 explants): 3.8%
Responding calli (%) (5 μM in delay, 472 explants): 33.1%
Efficiency (%) (10 μM in delay, 486 explants): 3.2%
Responding calli (%) (10 μM in delay, 486 explants): 38.8%
Efficiency (%) (30 μM in delay, 486 explants): 3.0%
Responding calli (%) (30 μM in delay, 486 explants): 38.6%
Efficiency (%) (50 μM in delay, 482 explants): 5.1%
Responding calli (%) (50 μM in delay, 482 explants): 47.9%
Efficiency (%) (100 μM in delay, 464 explants): 2.2%
Responding calli (%) (100 μM in delay, 464 explants): 28.4%
% efficiency [1]: 3.0%
% responding calli [1]: 41.7%
% efficiency [2]: 5.4%
% responding calli [2]: 50.5%
% efficiency [3]: 4.9%
% responding calli [3]: 49.6%
